Laboratory results reported in patent US9200333B2, “Methods for identifying modulators of murine double minute 2” (Indiana University Research and Technology Corporation, priority 2012, dated 2015).

Assays:
Assay type in all cases: cell-based, human
[1] = test system: neddylating activity of Mdm2 (neddylated p53) in H1299 cells; experiment: Western blot of neddylated p53 in H1299 cells transfected with p53, Mdm2 and CA-Src; details: vs DMSO, FIG. 29
Method: (§1) Mammalian cells (H1299 and MCF7) were cultured at 37° C. in a humidified incubator with 5% CO2 in DMEM high glucose plus 10% FBS. Transfection in H1299 was performed using a calcium phosphate method and in MCF7 using Lipofectamine Plus reagent (Invitrogen). Equal amounts of DNA were transfected into cells and incubated for the indicated times prior to analysis. PPI (Calbiochem) and MLN4924 (LifeSensors) were used at concentrations provided. Site-directed mutagenesis was performed by PCR, and constructs were sequenced in their entirety.
H1299 cells were transfected with His-Ubiquitin or His-Nedd8 and other plasmids as indicated using calcium phosphate method. 48 hours after transfection, cells were lysed in 1 ml of 6M guanidinium-HCl, 0.1M Na2HPO4/NaH2PO4, 0.01M Tris-HCl pH 8.0 plus 5 mM Imidazole and 10 mM β-mercaptoethanol. After sonication, the lysates were mixed with 30 μl of Ni^2+-NTA-agarose beads (Qiagen) prewashed with lysis buffer and incubated for 2 hours at room temperature. The beads were successively washed and eluted.
Based on transient transfection data that supported its role as a neddylating enzyme, the affect of pharmacological inhibition of neddylating activity of Mdm2 using MLN4924 was determined.

[2] = test system: p53 activity (PG13-Luc) in H1299 cells; experiment: PG13-Luc luciferase assay in H1299 cells transfected with p53, Mdm2 and CA-Src; details: H1299 cells transfected with PG-13-luc, FIG. 32
Method: (§2) For the luciferase assays, H1299 and MCF7 cells were transfected with PG13-Luc, Mdm2-P2-Luc, Maspin-Luc or Mutant Maspin-Luc (MT1) along with Myc-LacZ for determination of […] activity, using the calcium phosphate method. Reporter activity was normalized to […] activity. Data generated were done in triplicate and standard deviation was calculated from the mean.
H1299 cells were transfected with the PG-13-luc, p53, Mdm2 and CA-Src. Reduction in p53 activity by Mdm2 was further increased in the presence of c-Src.

[3] = test system: endogenous Mdm2 tyrosine phosphorylation in MCF7 cells; experiment: Immunoprecipitation of Mdm2 from MCF7 extracts and immunoblot for phosphorylated tyrosine; details: MCF7 cells pretreated 16 hrs; FIG. 8
Method: as §1
Whole cell lysates (Lysates) were prepared in Nonidet P-40 lysis buffer (25 mM Tris, pH 8.0, 150 mM NaCl, 0.5 mM EDTA, 0.5 mM EGTA, 1% Nonidet P-40, 1 mM sodium orthovanadate, 1 mM DTT) and supplemented with protease inhibitor mixture set III (Calbiochem) at 1:100 and incubated on ice for 30 min. Debris was collected by centrifugation, and equal amounts of supernatant protein were determined by BioRad assay. Protein was fractionated by SDS-PAGE and transferred to PVDF membrane (Amersham Biosciences). […]
First, H1299 cells were transfected with HA-tagged Mdm2 (HA-Mdm2) with either constitutively active c-Src (CA-Src) or a kinase dead Src (KD-Src). […] Along with overexpression, whether c-Src could phosphorylate endogenous Mdm2 was determined. […]

[4] = test system: Mdm2 protein levels in MCF7 cells; experiment: Western blot of endogenous Mdm2 protein levels in MCF7 cells
Method: as §1
(§3) Whole cell lysates (Lysates) were prepared in Nonidet P-40 lysis buffer (25 mM Tris, pH 8.0, 150 mM NaCl, 0.5 mM EDTA, 0.5 mM EGTA, 1% Nonidet P-40, 1 mM sodium orthovanadate, 1 mM DTT) and supplemented with protease inhibitor mixture set III (Calbiochem) at 1:100 and incubated on ice for 30 min. Debris was collected by centrifugation, and equal amounts of supernatant protein were determined by BioRad assay. Protein was fractionated by SDS-PAGE and transferred to PVDF membrane (Amersham Biosciences). Antibodies used for Western blotting were: Mdm2 (SMP14, 2Al0, and 4Bl1), c-Src (B-12; Santa Cruz), p53 (DO-1), tubulin (TU-02), GAPDH (8C2), and β-actin (C4; Santa Cruz Biotechnology); phosphotyrosine (4010; Upstate); phospho-c-Src Tyr^416 (Cell Signaling); Myc (9E10) and HA (12CA5) Immunoprecipitation from lysates was performed using 500 ng of either SMP14 for Mdm2, HA (12CA5), p53 (D01) or c-Src (B-12) antibody overnight at 4° C. in 700 μl of PBS. Protein A/G Plus Agarose (Santa Cruz Biotechnology) was added to the mixture and incubated an additional 2 hrs at 4° C., precipitates were washed three times in PBS, and samples were resuspended in SDS loading buffer and boiled for 5 min.
To examine how c-Src regulates endogenous Mdm2 protein levels, c-Src was activated through epidermal growth factor (EGF) stimulation of MCF7 cells. MCF7 cells were serum-starved for 48 hrs and then treated with 200 ng/mL of EGF for a time course of 2 hrs. […]

mdm2 P2 promoter = experiment: mdm2-P2-Luc luciferase reporter assay in MCF7 cells; details: vs DMSO, FIG. 16
Method: as §2
To determine whether c-Src altered mdm2 gene expression, a luciferase reporter assay was conducted in which the mdm2 P2 promoter was attached to luciferase.

p53 levels in MCF7 cells = experiment: Western blot of endogenous p53 levels in MCF7 cells
Method: as §3
To examine endogenous p53 levels, MCF 7 cells were transfected with increasing amounts of CA-Src. […]

[5] = test system: endogenous neddylated p53 in MCF7 cells; experiment: Immunoprecipitation of p53 from MCF7 cells and anti-Nedd8 immunoblot; details: vs DMSO, FIG. 30
Method: as §3
To determine the role of c-Src on endogenous neddylation of p53, the c-Src inhibitor PP1 was used to treat MCF7 cells. MCF7 cells were treated with PP1, and p53 was immunoprecipitated from cell extracts. […]

[6] = test system: p53 activity on the maspin promoter in MCF7 cells; experiment: Maspin-Luc luciferase assay in MCF7 cells; details: 16 hrs, FIG. 35
Method: as §2
To ensure that the decrease seen on the maspin promoter was due to c-Src phosphorylation of Mdm2, another luciferase assay was done using the Y281-302F Mdm2 and CA-Src. […] For further insight on how endogenous neddylation of p53 would affect maspin level, MCF7 cells were transfected with the maspin-Luc construct or a mutant maspin-Luc (MT1) that is unresponsive to p53, to ensure luciferase activity was dependent on p53. c-Src was then inhibited for 16 hrs using PP1 and a luciferase assay was performed. […] These findings provide insight into the regulation of c-Src-induced neddylation of p53. This neddylation event is responsible for the further reduction in p53 activity on both the PG13-Luc and on its ability to activate the tumor suppressor maspin (FIG. 37).

[7] = test system: maspin protein in MCF7 cells; experiment: Western blot of Maspin in MCF7 cells; details: vs DMSO, FIG. 36
Method: as §3
To ensure that the decrease seen on the maspin promoter was due to c-Src phosphorylation of Mdm2, another luciferase assay was done using the Y281-302F Mdm2 and CA-Src. […]

NS(=O)(=O)OC[C@@H]1C[C@@H](n2ccc3c(N[C@H]4CCc5ccccc54)ncnc32)C[C@@H]1O [MLN4924]
neddylated p53 [1]: loss of neddylated p53 | p53 activity (PG13-Luc) [2]: restored p53 activity to levels observed with Mdm2 alone

Cc1ccc(-c2nn(C(C)(C)C)c3ncnc(N)c23)cc1 [PP1]
endogenous Mdm2 tyrosine phosphorylation [3]: loss of endogenous Mdm2 tyrosine phosphorylation | Mdm2 levels ([4]; MCF7 cells, increasing concentrations (1, 5, 10, 15, 20 μM), FIG. 14): dose-dependent decrease in Mdm2 levels | Mdm2 protein level after EGF ([4]; serum starved MCF7 cells pre-treated 1 hr before addition of EGF, FIG. 13): no apparent increase in Mdm2 | mdm2 promoter luciferase activity (mdm2 P2 promoter): No difference | p53 levels (p53 levels in MCF7 cells; MCF7 cells, increasing concentrations (1, 5, 10, 15, 20 μM), FIG. 24): dose dependent decrease in p53 levels | endogenous neddylated p53 [5]: decrease in endogenous neddylated p53 | p53 activity on maspin-Luc construct [6]: increase of p53 activity on the maspin-Luc construct | maspin protein level [7]: maspin protein was increased

EGF: epidermal growth factor used to activate c-Src in MCF7 cells
Mdm2 protein levels on EGF stimulation ([4]; MCF7 cells serum-starved 48 hrs, 200 ng/mL, time course of 2 hrs, FIG. 12): increase of Mdm2 protein levels | p53 levels on EGF stimulation (p53 levels in MCF7 cells; MCF7 cells serum starved 48 hours, 1-hour time course, FIG. 23): increase in p53
